From patent US5607922A, “1,5-anhydrohexitol nucleoside analogues” (Stichting Rega VZW, priority 1992, dated 1997)
≈ marks a conversion by molar mass, not a printed value. Like-named read-outs stand apart in the source and are kept apart here.

Columns and labels:
[1] = tested on: herpes simplex virus type 1 (HSV-1) (KOS); experiment: microbe, parasite or virus in culture; type: cell-based; settings: Human alphaherpesvirus 1, E6SM
[2] = tested on: herpes simplex virus 2 (HSV-2) (G); experiment: microbe, parasite or virus in culture; type: cell-based; settings: Human alphaherpesvirus 2, E6SM
[3] = tested on: vaccinia virus (VV); experiment: microbe, parasite or virus in culture; type: cell-based; settings: Orthopoxvirus vaccinia, E6SM
[4] = tested on: Vesicular stomatitis virus; experiment: microbe, parasite or virus in culture; type: cell-based; settings: E6SM, read-out: Minimum inhibitory concentration Vesicular stomatitis virus
[5] = in vitro; settings: human, e6 sm cells, Minimum cytotoxic concentration
[6] = tested on: herpes viruses; settings: in words; literature; cited from earlier work
[7] = tested on: herpes simplex (1 and 2); experiment: Anti-herpes simplex (1 and 2) activity, statement in words; type: cell-based, herpes simplex virus
[8] = Table I, E6 SM cells, required to reduce virus-induced cytopathogenesis by 50%, read-out: Minimum inhibiting concentration ED50 HSV-1 (KOS)
[9] = read-out: Minimum inhibitory concentration Herpes simplex virus-1 (KOS)
[10] = Table I, E6 SM cells, required to reduce virus-induced cytopathogenesis by 50%, read-out: Minimum inhibiting concentration ED50 HSV-2 (G)
[11] = read-out: Minimum inhibitory concentration Herpes simplex virus-2 (G)
[12] = read-out: Minimum inhibiting concentration ED50 VV
[13] = read-out: Minimum inhibitory concentration Vaccinia virus
[14] = Table III, required to cause a microscopically detectable alteration of normal cell morphology

| Compound | EC50 [1, 8] [µg/mL] | EC50 [1, 9] [µg/mL] | EC50 [2, 10] [µg/mL] | EC50 [2, 11] [µg/mL] | EC50 [3, 12] [µg/mL] | EC50 [3, 13] [µg/mL] | EC50 [4] [µg/mL] | MCC [5] [µg/mL] | MCC [5, 14] [µg/mL] | anti-viral activity against herpes viruses [6] | anti-herpes simplex (1 and 2) activity [7] |
| --- | --- | --- | --- | --- | --- | --- | --- | --- | --- | --- | --- |
| Nc1nccc2c1ncn2[C@@H]1C[C@H](CO)[C@@H](O)[C@H]1O (relative stereo) [C-c^3 Ado, carbocyl 3-deaza adenosine] | > 400 | > 200 | 40 (≈ 151 µM) | > 200 | 0.7 (≈ 2.65 µM) | 0.2 (≈ 0.757 µM) | 0.2 (≈ 0.757 µM) | > 400 | ≥ 200 | – | – |
| Nc1ncnc2c1ncn2C[C@H](O)CO [(S)-DHPA, (S)-9-(2,3-dihydroxypropyl)-adenine] | 70 (≈ 335 µM) | > 200 | 300 (≈ 1430 µM) | > 200 | – | 20 (≈ 95.6 µM) | 20 (≈ 95.6 µM) | > 400 | ≥ 200 | – | – |
| O=c1[nH]c(=O)n([C@H]2C[C@H](O)[C@@H](CO)O2)cc1/C=C/Br [BVDU, E-5-(2-bromovinyl)-2'-deoxyuridine] | – | 0.004 (≈ 0.012 µM) | 10 (≈ 30 µM) | > 200 | 0.2 (≈ 0.6 µM) | 0.7 (≈ 2.1 µM) | > 200 | > 400 | ≥ 200 | dependent on a virus-specific thymidine kinase | – |
| Nc1ncnc2c1ncn2[C@@H]1CO[C@H](CO)[C@@H](O)C1 [Compound 10, 1,5-Anhydro-2-(adenin-9-yl) 2,3-dideoxy-D-arabinohexitol] | 7 (≈ 26.4 µM) | – | 7 (≈ 26.4 µM) | – | 20 (≈ 75.4 µM) | – | – | > 400 | – | – | – |
| Nc1nc(O)c2ncn([C@@H]3CO[C@H](CO)[C@@H](O)C3)c2n1 [Compound 13, 1,5-Anhydro-2-(guanin-9-yl)-2,3-dideoxy-D-arabinohexitol] | 0.2 (≈ 0.711 µM) | – | 0.1 (≈ 0.356 µM) | – | 2 (≈ 7.11 µM) | – | – | > 400 | – | – | – |
| Cc1cn([C@@H]2CO[C@H](CO)[C@@H](O)C2)c(=O)[nH]c1=O [Compound 17, 1,5-Anhydro-2,3-dideoxy2-(thymin-1-yl)-D-arabinohexitol] | 40 (≈ 156 µM) | – | 150 (≈ 585 µM) | – | > 200 | – | – | > 400 | – | – | – |
| O=c1[nH]c(=O)n([C@@H]2CO[C@H](CO)[C@@H](O)C2)cc1I [Compound 18, 1,5-Anhydro-2,3-dideoxy-2-(5-iodouracil-1-yl)-D-arabino-hexitol] | 0.07 (≈ 0.19 µM) | – | 0.07 (≈ 0.19 µM) | – | 150 (≈ 407 µM) | – | – | > 400 | – | – | especially advantageous anti-herpes simplex (1 and 2) activity |
| Nc1ccn([C@@H]2CO[C@H](CO)[C@@H](O)C2)c(=O)n1 [Compound 20, 1,5-Anhydro-2-(cytosin-1-yl)-2,3-dideoxy-D-arabinohexitol] | 0.7 (≈ 2.9 µM) | – | 0.04 (≈ 0.166 µM) | – | 0.7 (≈ 2.9 µM) | – | – | > 400 | – | – | – |
| CCc1cn([C@@H]2CO[C@H](CO)[C@@H](O)C2)c(=O)[nH]c1=O [Compound 23, 1,5-Anhydro-2,3-dideoxy-2-(5-ethyluracil-1-yl)-D-arabinohexitol] | – | < 0.04 | – | 0.2 (≈ 0.74 µM) | – | > 200 | > 200 | – | > 200 | – | especially advantageous anti-herpes simplex (1 and 2) activity |
| O=c1[nH]c(=O)n([C@H]2C[C@H](O)[C@@H](CO)O2)cc1I [IDU, 5-iodo-2'-deoxyuridine] | 0.2 (≈ 0.565 µM) | – | 0.2 (≈ 0.565 µM) | – | 0.2 (≈ 0.565 µM) | – | – | > 400 | – | dependent on a virus-specific thymidine kinase | – |
| NC(=O)c1ncn(C2O[C@H](CO)[C@@H](O)[C@H]2O)n1 (stereo partly drawn) [Ribavirin, 1-ribofuranosyl-3-carbamoyl-1,2,4-triazol] | 70 (≈ 287 µM) | 200 (≈ 819 µM) | 70 (≈ 287 µM) | > 400 | – | 70 (≈ 287 µM) | 20 (≈ 81.9 µM) | > 400 | > 400 | – | – |
